Results on 30 molecules are retold here after patent publication US11098043B2, “Certain imidazopyridines as cyclic AMP response element binding (CREB) binding protein (CBP) inhibitors and uses thereof” (University of Massachusetts, priority 2017, dated 2021).

The target in experiment [1] is T1, CBP bromodomain (Homo sapiens, UniProt Q92793).
T1 construct: docked complex of Compound 21 with CBP bromodomain
Nature of the experiment: AlphaScreen in vitro binding assay with CBP. The note with it: for IC50: AlphaScreen, isolated CBP bromodomain, means of at least two determinations; for Selectivity Value [BRD4(1) IC50 (μM)/CBP IC50 (μM)]: ratio BRD4(1) IC50 / CBP IC50. The procedure:
(§1) To determine the binding selectivity of compounds provided, AlphaScreen in vitro binding assays were performed with either CBP or BRD4.
(§2) Assays were performed with minor modifications from the manufacturer's protocol (Perkin Elmer, USA). All reagents were diluted in AlphaScreen™ buffer (50 mM HEPES, 150 mM NaCl, 0.01% v/v Tween-20, 0.1% w/v BSA, pH 7.4). After addition of Alpha beads to master solutions, all subsequent steps were performed under low light conditions. A 2× solution of components with final concentrations of His-BRD4(1) at 20 nM or His-CBP at 50 nM, Ni-coated Acceptor bead at 10 μg/ml, and biotinylated-JQ1 at 10 nM or biotinylated peptide at 100 nM was added in 10 μL to 384-well plates (AlphaPlate-384, PerkinElmer) using an EL406 liquid handler (Biotek, USA). Plates were spun down at 1000 rpm. A 10-point 1: √{square root over (sqrt(10))} serial dilution of compounds in DMSO was prepared at 200× the final concentration. 100 nL of compound from these stock plates were added by pin transfer using a Janus Workstation (PerkinElmer). A 2× solution of streptavidin-coated donor beads with a final concentration of 10 μg/ml was added in a 10 μL volume. The plates were spun down again at 1000 rpm and sealed with foil to prevent light exposure and evaporation. The plates were then incubated at room temperature for 1 hour and read on an Envision 2104 (PerkinElmer) using the manufacturer's protocol. IC50 values were calculated using a 4-parameter logistic curve in Prism 6 (GraphPad Software, USA) after normalization to DMSO-treated negative control wells.
In general terms: Bead proximity is the source of the signal in Alpha formats.

Experiment [2] addresses T2, BRD4(1) bromodomain (Homo sapiens, UniProt O60885).
T2 construct: final concentrations of His-BRD4(1) at 20 nM
The experiment is described as follows: AlphaScreen in vitro binding assay with BRD4. The note with it: isolated BRD4 bromodomain, means of at least two determinations. The procedure:
as §1
as §2, with “A 2× solution of components with final concentrations of His-BRD4(1) at 20 nM or His-CBP at 50 nM, Ni-coated Acceptor bead at 10 μg/ml, and biotinylated-JQ1 at 10 nM or biotinylated peptide at 100 nM was added in 10 μL to 384-well plates (AlphaPlate-384, PerkinElmer) using an EL406 liquid handler (Biotek, USA).” left out

SMILES strings stand for the structures.

T1 sequence (Q92793 1085-1192 limits assumed): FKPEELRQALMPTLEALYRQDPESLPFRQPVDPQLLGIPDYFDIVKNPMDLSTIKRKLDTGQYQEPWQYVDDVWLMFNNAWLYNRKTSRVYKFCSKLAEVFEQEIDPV

Usually IC50 stands for the concentration that inhibits the measured activity by half. Read a low IC50 as higher potency. For the molecule `COc1ccc(-c2nc3cc(C)cc(C)n3c2NC23CC4CC(CC(C4)C2)C3)cc1` [Compound 1, N-((3s,5s,7s)-adamantan-1-yl)-2-(4-methoxyphenyl)-5,7-dimethylimidazo[1,2-a]pyridin-3-amine], in experiment [1], the IC50 worked out at 16.1 µM and the “Selectivity Value [BRD4(1) IC50 (μM)/CBP IC50 (μM)]” value (from here on “Selectivity Value”) is listed as over 3.
In the case of `COc1ccc(-c2nc3cc(-c4c(C)noc4C)ccn3c2NC23CC4CC(CC(C4)C2)C3)cc1` [Compound 2], in experiment [1], the IC50 came out at 2.22 µM and the “Selectivity Value” value is over 23.
The like results for `COc1ccc(-c2nc3cc(-c4c(C)noc4C)ccn3c2NC2CCCCC2)cc1` [Compound 3] were, in that order, 14.2 µM and over 4.
Take `Cc1noc(C)c1-c1ccn2c(NCC(=O)OC(C)(C)C)c(CCc3ccccc3)nc2c1` [Compound 4]: in experiment [1], the IC50 amounted to 7.83 µM and the “Selectivity Value” value is reported as over 6.
In the case of `Cc1noc(C)c1-c1ccn2c(NC3CCCCC3)c(CCc3ccccc3)nc2c1` [Compound 5, N-cyclohexyl-7-(3,5-dimethylisoxazol-4-yl)-2-phenethylimidazo[1,2-a]pyridin-3-amine], in experiment [1], the IC50 is 0.718 µM and the “Selectivity Value” value is on record as 10. Moreover, the IC50 in experiment [2] was 7.43 µM.
Take `Cc1noc(C)c1-c1ccn2c(NC34CC5CC(CC(C5)C3)C4)c(CCc3ccccc3)nc2c1` [Compound 6]: in experiment [1], the IC50 came to 0.507 µM and the “Selectivity Value” value is 7. In addition, the IC50 in experiment [2] worked out at 3.38 µM.
The like results for `COc1ccc(-c2nc3cc(-c4c(C)noc4C)ccn3c2NCC(=O)OC(C)(C)C)cc1` [Compound 7] were, in that order, 1.17 µM, 3 and 2.96 µM.
On to `COc1ccc(-c2nc3cc(C)cc(C)n3c2NC(C)(C)CC(C)(C)C)cc1` [Compound 8, 2-(4-methoxyphenyl)-5,7-dimethyl-N-(2,4,4-trimethylpentan-2-yl)imidazo[1,2-a]pyridin-3-amine], for which, in experiment [1], the IC50 amounted to 16.3 µM and the “Selectivity Value” value is listed as over 3.
Take `CN1Cc2cc(-c3ccn4c(NC5CCCCC5)c(CCc5ccccc5)nc4c3)ccc2NC1=O` [Compound 10]: in experiment [1], the IC50 amounted to 8.12 µM and the “Selectivity Value” value is under 1. The molecule also had an IC50 in experiment [2] of 7.55 µM.
As for `Cc1[nH]nc2ccc(-c3ccn4c(NC5CCCCC5)c(CCc5ccccc5)nc4c3)cc12` [Compound 11], in experiment [1], the IC50 was 8.02 µM and the “Selectivity Value” value was under 1. For the same molecule, in experiment [2], the IC50 worked out at 0.51 µM.
For `Cc1noc2ccc(-c3ccn4c(NC5CCCCC5)c(CCc5ccccc5)nc4c3)cc12` [Compound 12], in that order: over 50 µM, under 1 and 3.03 µM.
`Cc1noc(C)c1-c1ccn2c(NC(C)(C)CC(C)(C)C)c(CCc3ccccc3)nc2c1` [Compound 13, 7-(3,5-dimethylisoxazol-4-yl)-2-phenethyl-N-(2,4,4-trimethylpentan-2-yl)imidazo[1,2-a]pyridin-3-amine]: in experiment [1], the IC50 was determined as 1.88 µM and the “Selectivity Value” value came out at 1. The molecule also returned an IC50 in experiment [2] of 2.77 µM.
For `Cc1noc(C)c1-c1ccn2c(NC(C)(C)C)c(CCc3ccccc3)nc2c1` [Compound 14, N-(tert-butyl)-7-(3,5-dimethylisoxazol-4-yl)-2-phenethylimidazo[1,2-a]pyridin-3-amine], in that order: 0.956 µM, 6 and 5.64 µM.
`COc1ccc(CCc2nc3cc(-c4c(C)noc4C)ccn3c2NCC(=O)OC(C)(C)C)cc1` [Compound 15]: the IC50 is 1.55 µM in experiment [1] and 4.22 µM in experiment [2]. In addition, the “Selectivity Value” value in experiment [1] was determined as 3.
The like results for `COc1ccc(CCc2nc3cc(-c4c(C)noc4C)ccn3c2NC23CC4CC(CC(C4)C2)C3)cc1` [Compound 16, N-((3s,5s,7s)-adamantan-1-yl)-7-(3,5-dimethylisoxazol-4-yl)-2-(4-methoxyphenethyl)imidazo[1,2-a]pyridine-3-amine] were, in that order, 0.923 µM, 7.11 µM and 8.
For `COc1ccc(CCc2nc3cc(-c4c(C)noc4C)ccn3c2NCCN2CCOCC2)cc1` [Compound 17], in that order: 0.464 µM, 3.42 µM and 7.
On to `COc1ccc(CCc2nc3cc(-c4c(C)noc4C)ccn3c2NC2CCCCC2)cc1` [Compound 18, N-cyclohexyl-7-(3,5-dimethylisoxazol-4-yl)-2-(4-methoxyphenethyl)imidazo[1,2-a]pyridin-3-amine], for which, in experiment [1], the IC50 is 0.159 µM and the “Selectivity Value” value stood at 41. The molecule further displayed an IC50 in experiment [2] of 6.59 µM.
For the molecule `COc1ccc(CCc2nc3cc(-c4c(C)noc4C)ccn3c2NC(C)C)cc1` [Compound 19, 7-(3,5-dimethylisoxazol-4-yl)-N-isopropyl-2-(4-methoxyphenethyl)imidazo[1,2-a]pyridin-3-amine], the values for the IC50 in experiment [1] and in experiment [2] were 0.296 µM and 10.1 µM, respectively. For the same molecule, in experiment [1], the “Selectivity Value” value came out at 34.
`COc1ccc(CCc2nc3cc(-c4c(C)noc4C)ccn3c2NC(C)(C)C)cc1` [Compound 20]: in experiment [1], the IC50 was determined as 2.34 µM and the “Selectivity Value” value is over 21.
In experiment [2], `COc1ccc(CCc2nc3cc(-c4c(C)noc4C)ccn3c2NC2CCCCC2)cc1Cl` [Compound 21, 2-(3-chloro-4-methoxyphenethyl)-N-cyclohexyl-7-(3,5-dimethylisoxazol-4-yl)imidazo[1,2-a]pyridin-3-amine] returned an IC50 of 5.19 µM.
As to `CCOc1ccc(CCc2nc3cc(-c4c(C)noc4C)ccn3c2NC2CCCCC2)cc1` [Compound 22, N-cyclohexyl-7-(3,5-dimethylisoxazol-4-yl)-2-(4-ethoxyphenethyl)imidazo[1,2-a]pyridin-3-amine], in experiment [1], the IC50 turned out to be 0.214 µM and the “Selectivity Value” value came to 30. Besides, the IC50 in experiment [2] was determined as 6.48 µM.
Turning to `CCCOc1ccc(CCc2nc3cc(-c4c(C)noc4C)ccn3c2NC2CCCCC2)cc1` [Compound 23], the figures for the IC50 in experiment [1] and in experiment [2] were 0.633 µM and 17.9 µM, respectively. In addition, the “Selectivity Value” value in experiment [1] amounted to 28.
The like results for `COc1ccc(CCc2nc3cc(-c4c(C)noc4C)ccn3c2NCc2ccccc2)cc1` [Compound 24] were, in that order, 1.92 µM, 8.47 µM and 4.
For the molecule `COc1ccc(CCc2nc3cc(-c4c(C)noc4C)ccn3c2Nc2ccc(Cl)cc2)cc1` [Compound 25], in experiment [1], the half-inhibitory concentration (IC50) is 1.61 µM and the “Selectivity Value” value was 5. Besides, in experiment [2], the IC50 is 7.95 µM.
Consider `COc1ccc(CCc2nc3cc(-c4c(C)noc4C)ccn3c2NC(C)(C)CC(C)(C)C)cc1` [Compound 28, 7-(3,5-dimethylisoxazol-4-yl)-2-(4-methoxyphenethyl)-N-(2,4,4-trimethylpentan-2-yl)imidazo[1,2-a]pyridin-3-amine], for which, in experiment [1], the IC50 is 20.9 µM and the “Selectivity Value” value is listed as over 2.
`Cc1noc(C)c1-c1ccn2c(NC(C)(C)CC(C)(C)C)c(CCc3ccc(OC(C)C)cc3)nc2c1` [Compound 30]: the “Selectivity Value” value in experiment [1] was found to be 1.
For `CCOc1ccc(CCc2nc3cc(-c4c(C)noc4C)ccn3c2NC2CCCCC2)cc1Cl` [Compound 31], in experiment [1], the IC50 stood at 2.54 µM and the “Selectivity Value” value is listed as 20.
Regarding `CCOc1ccc(CCc2nc3cc(-c4c(C)noc4C)ccn3c2NC(C)(C)CC(C)(C)C)cc1Cl` [Compound 32], in experiment [1], the IC50 was determined as 20.5 µM and the “Selectivity Value” value was over 2.
Regarding `COc1ccc(CCCc2nc3cc(-c4c(C)noc4C)ccn3c2NC(C)(C)CC(C)(C)C)cc1` [Compound 35], the “Selectivity Value” value in experiment [1] was found to be 1.
In experiment [1], `Cc1sc2c(c1C)C(c1ccc(Cl)cc1)=N[C@@H](CC(=O)OC(C)(C)C)c1nnc(C)n1-2` [JQ1, reference compound] came in with an IC50 of over 50 µM.
